Among the data in patent US6995182B2, “1-sulfonyl pyrrolidine derivatives” (Hoffmann-La Roche Inc., priority 2000, dated 2006) are melting point and EC50 values, retold here.

One data set concerns the target T1, rat mGlu 1a receptor (Rattus norvegicus, UniProt P23385).
T1 construct: expressed in transfected cells; host or cells: EBNA cells (transient transfection)
Description: [Ca2+]i measurements (FLIPR, Fluo-3 AM) on mGlu 1a transfected EBNA cells. To be noted: rat mGlu 1a receptor transiently transfected into EBNA cells, agonist activity. Format: cell-based. Here is the method:
The pharmacological activity of the compounds was tested using the following method: cDNA encoding rat mGlu 1a receptor was transiently transfected into EBNA cells using a procedure described by E.-J. Schlaeger and K. Christensen (Transient gene expression in mammalian cells grown in serum-free suspension culture; Cytotechnology, 15: 1–13, 1998). [Ca^2+]i measurements were performed on mGlu 1a transfected EBNA cells after incubation of the cells with Fluo-3 AM (0.5 μM final concentration) for 1 hour at 37° C. followed by 4 washes with assay buffer (DMEM supplemented with Hank's salt and 20 mM HEPES. [Ca^2+]i measurements were done using a fluorometric imaging plate reader (FLIPR, Molecular Devices Corporation, La Jolla, Calif., USA). When compounds were evaluated as antagonists they were tested against 10 μM glutamate as agonist.
The inhibition (antagonists) or activation (agonists) curves were fitted with a four parameter logistic equation giving EC50, IC50, and Hill coefficient using the iterative non linear curve fitting software Origin (Microcal Software Inc., Northampton, Mass., USA).

In general, melting point refers to the temperature, or range, at which the solid turns liquid. As a reminder, the EC50 is the concentration needed to bring the measured effect to its halfway point. Higher therefore signals lower potency in that assay.

T1 sequence (P23385 19-1199): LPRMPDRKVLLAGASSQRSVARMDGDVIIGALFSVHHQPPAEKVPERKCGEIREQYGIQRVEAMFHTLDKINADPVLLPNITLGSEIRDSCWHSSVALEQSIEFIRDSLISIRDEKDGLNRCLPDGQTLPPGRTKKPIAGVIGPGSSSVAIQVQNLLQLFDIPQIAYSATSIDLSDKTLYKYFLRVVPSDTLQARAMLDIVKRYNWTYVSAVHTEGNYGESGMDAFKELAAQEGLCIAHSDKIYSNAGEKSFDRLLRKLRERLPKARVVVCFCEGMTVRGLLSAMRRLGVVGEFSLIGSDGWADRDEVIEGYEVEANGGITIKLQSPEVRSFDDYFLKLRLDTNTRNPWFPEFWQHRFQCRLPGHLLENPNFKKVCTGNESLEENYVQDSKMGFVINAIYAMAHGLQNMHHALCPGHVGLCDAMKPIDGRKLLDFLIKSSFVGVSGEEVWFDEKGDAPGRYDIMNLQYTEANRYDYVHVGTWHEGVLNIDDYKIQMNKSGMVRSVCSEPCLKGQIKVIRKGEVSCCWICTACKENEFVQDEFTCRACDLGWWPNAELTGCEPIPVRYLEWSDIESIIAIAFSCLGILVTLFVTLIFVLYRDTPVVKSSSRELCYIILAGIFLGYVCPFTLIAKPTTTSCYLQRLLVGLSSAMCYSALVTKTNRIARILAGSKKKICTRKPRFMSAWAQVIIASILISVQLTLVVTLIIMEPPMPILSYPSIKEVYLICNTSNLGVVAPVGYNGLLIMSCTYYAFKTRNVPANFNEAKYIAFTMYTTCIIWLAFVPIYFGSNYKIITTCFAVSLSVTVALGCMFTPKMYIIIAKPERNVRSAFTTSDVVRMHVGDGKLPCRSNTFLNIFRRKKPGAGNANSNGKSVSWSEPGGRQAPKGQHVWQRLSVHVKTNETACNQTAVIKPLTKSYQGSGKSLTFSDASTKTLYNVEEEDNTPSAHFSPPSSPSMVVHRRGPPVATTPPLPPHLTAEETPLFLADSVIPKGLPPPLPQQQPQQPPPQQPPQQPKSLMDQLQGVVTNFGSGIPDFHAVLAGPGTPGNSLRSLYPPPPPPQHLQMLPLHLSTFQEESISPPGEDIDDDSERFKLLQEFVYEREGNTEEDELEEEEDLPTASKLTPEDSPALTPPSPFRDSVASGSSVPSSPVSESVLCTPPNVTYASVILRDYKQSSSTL

With `Cc1ccc(S(=O)(=O)N2[C@@H](C#N)CC[C@H]2c2ccc(F)cc2)cc1` (racemic) [Example 4, (2RS,5SR)-5-(4-Fluoro-phenyl)-1-(toluene-4-sulfonyl)-pyrrolidine-2-carbonitrile], the melting point came out at 128 °C. The compound also yielded a concentration giving a half-maximal response (EC50) at rat mGlu 1a receptor of 4400 nM.

Take `Cc1ccc(S(=O)(=O)N2[C@@H](CCl)CC[C@H]2c2ccc(F)cc2)cc1` (racemic) [Example 5, (2RS,5SR)-2-Chloromethyl-5-(4-fluoro-phenyl)-1-(toluene-4-sulfonyl)-pyrrolidine]: the melting point is 130 °C. The same compound had a 50% effective concentration (EC50) on rat mGlu 1a receptor of 1400 nM.

`Cc1ccc(S(=O)(=O)N2[C@@H](CNC(=O)C3CC3)CC[C@H]2c2ccc(F)cc2)cc1` (racemic) [Example 16, (2RS,5SR)-Cyclopropanecarboxylic acid [5-(4-fluoro-phenyl)-1-(toluene-4-sulfonyl)-pyrrolidin-2-yl-methyl]-amide] yielded a melting point of 154 °C. Further, the midpoint of the response on rat mGlu 1a receptor, the EC50, lay at 210 nM.

Compound `Cc1ccc(S(=O)(=O)N2[C@@H](Cc3noc(C)n3)CC[C@H]2c2ccc(F)cc2)cc1` (racemic) [Example 21, (2RS,5SR)-3-[5-(4-Fluoro-phenyl)-1-(toluene-4-sulfonyl)-pyrrolidin-2-yl-methyl]-5-methyl-[1,2,4]oxadiazole] gave an EC50 on rat mGlu 1a receptor of 630 nM.

Consider `Cc1ccc(S(=O)(=O)N2[C@@H](Cc3nnn(C)n3)CC[C@H]2c2ccc(F)cc2)cc1` (racemic) [Example 39, (2RS,5SR)-5-[5-(4-Fluoro-phenyl)-1-(toluene-4-sulfonyl)-pyrrolidin-2-yl-methyl]-2-methyl-2H-tetrazole], for which, on rat mGlu 1a receptor, the concentration for a half-maximal effect (EC50) worked out at 360 nM.

For the compound `Cc1ccc(S(=O)(=O)N2[C@H](CCCNS(C)(=O)=O)CC[C@@H]2c2ccc(F)cc2)cc1` (racemic) [Example 77, (2RS,5RS)-N-{3-[5-(4-Fluoro-phenyl)-1-(toluene-4-sulfonyl)-pyrrolidin-2-yl]-propyl}-methanesulfonamide], the melting point came to 123 °C. The EC50 at rat mGlu 1a receptor was 160 nM.

Compound `Cc1ccc(S(=O)(=O)N2[C@@H](CCc3ncnn3C)CC[C@H]2c2ccc(F)cc2)cc1` (racemic) [Example 78, (2RS,5SR)-5-{2-[5-(4-Fluoro-phenyl)-1-(toluene-4-sulfonyl)-pyrrolidin-2-yl]-ethyl}-1-methyl-1H-[1,2,4]triazole] gave a melting point of 145 °C.

Compound `Cc1ccc(S(=O)(=O)N2CCCC2CCCNC(=O)C2CC2)cc1` (racemic) [Example 87, (RS)-Cyclopropanecarboxylic acid {3-[1-(toluene-4-sulfonyl)-pyrrolidin-2-yl]-propyl}-amide] came in with an EC50 at rat mGlu 1a receptor of 980 nM.

Compound `Cc1ccc(S(=O)(=O)N2[C@@H](Cc3nc(C4CC4)no3)CC[C@H]2c2ccc(F)cc2)cc1` (racemic) [Example 95, (2RS,5SR)-3-Cyclopropyl-5-[5-(4-fluoro-phenyl)-1-(toluene-4-sulfonyl)-pyrrolidin-2-ylmethyl]-[1,2,4]oxadiazole] yielded a melting point of 102 °C.

As to `Cc1ccc(S(=O)(=O)N2[C@@H](Cc3nc(C)no3)CC[C@H]2c2ccc(F)cc2)cc1` (racemic) [Example 96, (2RS,5SR)-5-[5-(4-Fluoro-phenyl)-1-(toluene-4-sulfonyl)-pyrrolidin-2-ylmethyl]-3-methyl-[1,2,4]oxadiazole], the melting point worked out at 103 °C.

Turning to `Cc1ccc(S(=O)(=O)N2[C@@H](CCO)CC[C@H]2c2ccc(F)cc2)cc1` (racemic) [Example 98, (2RS,5SR)-2-[5-(4-Fluoro-phenyl)-1-(toluene-4-sulfonyl)-pyrrolidin-2-yl]-ethanol], the melting point was 129 °C.

`Cc1ccc(S(=O)(=O)N2[C@@H](CCn3cccn3)CC[C@H]2c2ccc(F)cc2)cc1` (racemic) [Example 100, (2RS,5SR)-1-{2-[5-(4-Fluoro-phenyl)-1-(toluene-4-sulfonyl)-pyrrolidin-2-yl]-ethyl}-1H-pyrazole] returned a melting point of 121 °C.

Compound `Cc1ccc(S(=O)(=O)N2[C@@H](CCn3ncnn3)CC[C@H]2c2ccc(F)cc2)cc1` (racemic) [Example 101, (2RS,5SR)-2-{2-[5-(4-Fluoro-phenyl)-1-(toluene-4-sulfonyl)-pyrrolidin-2-yl]-ethyl}-2H-tetrazole] registered an EC50 at rat mGlu 1a receptor of 1470 nM.

As for `Cc1ccc(S(=O)(=O)N2[C@H](CCCc3nc(C)cc(C)n3)CC[C@@H]2c2ccc(F)cc2)cc1` (racemic) [Example 123, (2RS,5RS)-2-{3-[5-(4-Fluoro-phenyl)-1-(toluene-4-sulfonyl)-pyrrolidin-2-yl]-propyl}-4,6-dimethyl-pyrimidine], on rat mGlu 1a receptor, the response was half-maximal at 1280 nM (EC50).

For the compound `Cc1ccc(S(=O)(=O)N2[C@@H](CCc3nnco3)CC[C@H]2c2ccc(F)cc2)cc1` (racemic) [Example 127, (2RS,5SR)-2-{2-[5-(4-Fluoro-phenyl)-1-(toluene-4-sulfonyl)-pyrrolidin-2-yl]-ethyl}-[1,3,4]oxadiazole], the melting point is 138 °C.

Compound `Cc1ccc(S(=O)(=O)N2[C@@H](c3nnco3)CC[C@H]2c2ccc(F)cc2)cc1` (racemic) [Example 137, (2RS,5SR)-2-[5-(4-Fluoro-phenyl)-1-(toluene-4-sulfonyl)-pyrrolidin-2-yl]-[1,3,4]oxadiazole] yielded a concentration for a half-maximal effect (EC50) at rat mGlu 1a receptor of 1240 nM.

At rat mGlu 1a receptor, `Cc1ccc(S(=O)(=O)N2[C@H](CCCCn3ncnn3)CC[C@@H]2c2ccc(F)cc2)cc1` (racemic) [Example 143, (2RS,5RS)-2-{4-[5-(4-Fluoro-phenyl)-1-(toluene-4-sulfonyl)-pyrrolidin-2-yl]-butyl}-2H-tetrazole] registered an EC50 of 350 nM.

For `Cc1ccc(S(=O)(=O)N2C(CCCO)CC[C@H]2c2ccc(F)cc2)cc1` (stereo in doubt) [Example 64, (2S,5S)-3-[5-(4-Fluoro-phenyl)-1-(toluene-4-sulfonyl)-pyrrolidin-2-yl]-propan-1-ol], at rat mGlu 1a receptor, the EC50 was determined as 200 nM.

On to `Cc1ccc(S(=O)(=O)N2C(C3=NOC(C)N3)CCC2c2ccc(F)cc2)cc1` (centres unmarked) [Example 28, 3-[5-(4-Fluoro-phenyl)-1-(toluene-4-sulfonyl)-pyrrolidin-2-yl]-5-methyl-4,5-dihydro-[1,2,4]oxadiazole], for which the melting point is 68 °C.

`Cc1ccc(S(=O)(=O)N2[C@@H](CO)CC[C@H]2c2ccc(F)cc2)cc1` [Example 58, (2R,5S)-[5-(4-Fluoro-phenyl)-1-(toluene-4-sulfonyl)-pyrrolidin-2-yl]-methanol] yielded a melting point of 140 °C.

Compound `Cc1ccc(S(=O)(=O)N2[C@@H](CCCO)CC[C@H]2c2ccc(F)cc2)cc1` [Example 64, (2S,5S)-3-[5-(4-Fluoro-phenyl)-1-(toluene-4-sulfonyl)-pyrrolidin-2-yl]-propan-1-ol] displayed a melting point of 96 °C.

The compound `Cc1ccc(S(=O)(=O)N2[C@@H](CCCn3ccnc3)CC[C@H]2c2ccc(F)cc2)cc1` [Example 116, (2S,5S)-1-{3-[5-(4-Fluoro-phenyl)-1-(toluene-4-sulfonyl)-pyrrolidin-2-yl]-propyl}-1H-imidazole] returned an EC50 on rat mGlu 1a receptor of 220 nM.
